Laboratory results as given in ChEMBL document CHEMBL3885861, “Open TG-GATES”.

Organism: Rattus norvegicus
Assay: Open TG-GATES - Regimen: Daily Repeat
Assay type: toxicity, organism-based, Sprague-Dawley
Set-up: regimen Daily Repeat, gender Male, age 6 weeks
Details: in vivo, iv, route intravenous injection; for Bas / Eos / Fbg / Ht / Lym / MCH / MCHC / MCV / Mono / PT / RBC / Ret / WBC: tissue Blood; for KIDNEY_L / KIDNEY_R / KIDNEY_TOTAL: tissue Kidney; for ALP / AST / CRE / DBIL / GLC / IP / K / Na / PL / RALB / TBIL / TG / TP / gamma-GTP / TC: tissue Plasma
[1] = 0 mg/kg, 72 h, dose level Control, time 3 day
[2] = 0 mg/kg, […], dose level Control, time 7 day
[3] = 0 mg/kg, […], dose level Control, time 14 day
[4] = 0 mg/kg, […], dose level Control, time 28 day
[5] = 1 mg/kg, 72 h, dose level High, time 3 day
[6] = 1 mg/kg, […], dose level High, time 7 day
[7] = 1 mg/kg, […], dose level High, time 14 day
[8] = 1 mg/kg, […], dose level High, time 28 day

COc1cccc2c1C(=O)c1c(O)c3c(c(O)c1C2=O)C[C@@](O)(C(=O)CO)C[C@@H]3O[C@H]1C[C@H](N)[C@H](O)[C@H](C)O1 [DOXORUBICIN]
TERMINAL_BW [1]: 230.2 g
Bas [1]: 0%
Eos [1]: 0.8%
Fbg [1]: 276.4 mg/dL
Ht [1]: 37.6%
Lym [1]: 80%
MCH [1]: 21.3 pg
MCHC [1]: 34.2%
MCV [1]: 62.3 fL
Mono [1]: 2.8%
PT [1]: 16.3 s
RBC [1]: 603.8 x10_4/ul
Ret [1]: 5.8%
WBC [1]: 107.3 x10_2/uL
KIDNEY_L [1]: 1 g
KIDNEY_R [1]: 1 g
KIDNEY_TOTAL [1]: 2 g
ALP [1]: 1504.4 IU/L
AST [1]: 70.6 IU/L
CRE [1]: 0.2 mg/dL
DBIL [1]: 0.002 mg/dL
GLC [1]: 193.8 mg/dL
IP [1]: 6.9 mg/dL
K [1]: 4.8 meq/L
Na [1]: 141 meq/L
PL [1]: 141 mg/dL
RALB [1]: 3 g/dL
TBIL [1]: 0.006 mg/dL
TG [1]: 86.6 mg/dL
TP [1]: 5.4 g/dL
gamma-GTP [1]: 1.4 IU/L
TERMINAL_BW [2]: 251.1 g
TERMINAL_BW [3]: 307.3 g
TERMINAL_BW [4]: 382.5 g
Bas [2]: 0%
Eos [2]: 0.6%
Fbg [2]: 285.8 mg/dL
Ht [2]: 38.4%
Lym [2]: 77.4%
MCH [2]: 20.8 pg
MCHC [2]: 35.3%
MCV [2]: 58.9 fL
Mono [2]: 2.8%
PT [2]: 16.5 s
RBC [2]: 652.8 x10_4/ul
Ret [2]: 5.5%
WBC [2]: 121 x10_2/uL
Bas [3]: 0%
Eos [3]: 0.8%
Fbg [3]: 305.6 mg/dL
Ht [3]: 39.4%
Lym [3]: 82.2%
MCH [3]: 20.5 pg
MCHC [3]: 35.8%
MCV [3]: 57 fL
Mono [3]: 2.2%
PT [3]: 16.1 s
RBC [3]: 691.8 x10_4/ul
Ret [3]: 4.8%
WBC [3]: 124.7 x10_2/uL
Bas [4]: 0%
Eos [4]: 1.4%
Fbg [4]: 305.6 mg/dL
Ht [4]: 42.7%
Lym [4]: 85.6%
MCH [4]: 19.6 pg
MCHC [4]: 36.3%
MCV [4]: 54 fL
Mono [4]: 2%
PT [4]: 16.4 s
RBC [4]: 792.2 x10_4/ul
Ret [4]: 2.9%
WBC [4]: 144.2 x10_2/uL
KIDNEY_L [2]: 1.1 g
KIDNEY_R [2]: 1.1 g
KIDNEY_TOTAL [2]: 2.2 g
KIDNEY_L [3]: 1.2 g
KIDNEY_R [3]: 1.2 g
KIDNEY_TOTAL [3]: 2.3 g
KIDNEY_L [4]: 1.4 g
KIDNEY_R [4]: 1.4 g
KIDNEY_TOTAL [4]: 2.7 g
ALP [2]: 1305.8 IU/L
AST [2]: 67 IU/L
CRE [2]: 0.2 mg/dL
DBIL [2]: 0 mg/dL
GLC [2]: 188.2 mg/dL
IP [2]: 7.2 mg/dL
K [2]: 4.5 meq/L
Na [2]: 142.2 meq/L
RALB [2]: 2.9 g/dL
TBIL [2]: 0.014 mg/dL
TC [2]: 74.4 mg/dL
TG [2]: 100.2 mg/dL
TP [2]: 5.3 g/dL
gamma-GTP [2]: 1.2 IU/L
ALP [3]: 1239.2 IU/L
AST [3]: 59.2 IU/L
CRE [3]: 0.2 mg/dL
DBIL [3]: 0 mg/dL
GLC [3]: 203 mg/dL
IP [3]: 6.9 mg/dL
K [3]: 4.4 meq/L
Na [3]: 140.8 meq/L
RALB [3]: 3.1 g/dL
TBIL [3]: 0.018 mg/dL
TC [3]: 69 mg/dL
TG [3]: 129.2 mg/dL
TP [3]: 5.7 g/dL
gamma-GTP [3]: 2.6 IU/L
ALP [4]: 795.8 IU/L
AST [4]: 64.8 IU/L
CRE [4]: 0.3 mg/dL
DBIL [4]: 0 mg/dL
GLC [4]: 186.6 mg/dL
IP [4]: 6.7 mg/dL
K [4]: 4.1 meq/L
Na [4]: 140.6 meq/L
PL [4]: 130.8 mg/dL
RALB [4]: 3.1 g/dL
TBIL [4]: 0.006 mg/dL
TC [4]: 65 mg/dL
TG [4]: 96.2 mg/dL
TP [4]: 6.1 g/dL
gamma-GTP [4]: 1 IU/L
TERMINAL_BW [5]: 213.7 g
Bas [5]: 0%
Eos [5]: 1%
Fbg [5]: 293 mg/dL
Ht [5]: 37.6%
Lym [5]: 83.6%
MCH [5]: 21.4 pg
MCHC [5]: 35%
MCV [5]: 61.1 fL
Mono [5]: 2.4%
PT [5]: 16.3 s
RBC [5]: 616 x10_4/ul
Ret [5]: 1%
WBC [5]: 40.5 x10_2/uL
KIDNEY_L [5]: 0.9 g
KIDNEY_R [5]: 0.9 g
KIDNEY_TOTAL [5]: 1.8 g
ALP [5]: 1562.4 IU/L
AST [5]: 64.4 IU/L
CRE [5]: 0.2 mg/dL
DBIL [5]: 0 mg/dL
GLC [5]: 194.4 mg/dL
IP [5]: 7 mg/dL
K [5]: 4.3 meq/L
Na [5]: 141.4 meq/L
RALB [5]: 3.1 g/dL
TBIL [5]: 0.014 mg/dL
TC [5]: 79 mg/dL
TG [5]: 78.2 mg/dL
TP [5]: 5.6 g/dL
gamma-GTP [5]: 1.4 IU/L
TERMINAL_BW [6]: 236 g
TERMINAL_BW [7]: 244.4 g
TERMINAL_BW [8]: 221.9 g
Bas [6]: 0%
Eos [6]: 1.4%
Fbg [6]: 307.2 mg/dL
Ht [6]: 34.1%
Lym [6]: 84.2%
MCH [6]: 20.5 pg
MCHC [6]: 36.1%
MCV [6]: 56.8 fL
Mono [6]: 2.4%
PT [6]: 16.1 s
RBC [6]: 600.6 x10_4/ul
Ret [6]: 0.06%
WBC [6]: 32.9 x10_2/uL
Bas [7]: 0%
Eos [7]: 0.4%
Fbg [7]: 315.6 mg/dL
Ht [7]: 31.5%
Lym [7]: 76.8%
MCH [7]: 20.6 pg
MCHC [7]: 37.1%
MCV [7]: 55.7 fL
Mono [7]: 1%
RBC [7]: 566.8 x10_4/ul
Ret [7]: 0.04%
WBC [7]: 14.2 x10_2/uL
Bas [8]: 0%
Eos [8]: 0.5%
Fbg [8]: 669 mg/dL
Lym [8]: 31.5%
MCH [8]: 18.1 pg
MCHC [8]: 38%
MCV [8]: 47.6 fL
Mono [8]: 8%
PT [8]: 15.1 s
RBC [8]: 301.5 x10_4/ul
Ret [8]: 0.2%
WBC [8]: 44.9 x10_2/uL
KIDNEY_L [6]: 1 g
KIDNEY_R [6]: 1 g
KIDNEY_TOTAL [6]: 2 g
KIDNEY_L [7]: 1 g
KIDNEY_R [7]: 1 g
KIDNEY_TOTAL [7]: 2 g
KIDNEY_L [8]: 1.4 g
KIDNEY_R [8]: 1.4 g
KIDNEY_TOTAL [8]: 2.8 g
ALP [6]: 963 IU/L
AST [6]: 66.6 IU/L
CRE [6]: 0.2 mg/dL
DBIL [6]: 0 mg/dL
GLC [6]: 199.6 mg/dL
IP [6]: 7.3 mg/dL
K [6]: 4.5 meq/L
Na [6]: 142.8 meq/L
PL [6]: 170.4 mg/dL
RALB [6]: 3 g/dL
TBIL [6]: 0.018 mg/dL
TC [6]: 88.8 mg/dL
TG [6]: 110.2 mg/dL
TP [6]: 5.6 g/dL
gamma-GTP [6]: 1.6 IU/L
ALP [7]: 635.6 IU/L
AST [7]: 56.4 IU/L
CRE [7]: 0.2 mg/dL
DBIL [7]: 0.002 mg/dL
GLC [7]: 200.8 mg/dL
K [7]: 4.1 meq/L
Na [7]: 142 meq/L
RALB [7]: 2.9 g/dL
TBIL [7]: 0.032 mg/dL
TC [7]: 90.8 mg/dL
TG [7]: 110.4 mg/dL
TP [7]: 5.4 g/dL
gamma-GTP [7]: 1.4 IU/L
ALP [8]: 339 IU/L
AST [8]: 39.5 IU/L
CRE [8]: 0.2 mg/dL
DBIL [8]: 0 mg/dL
GLC [8]: 197 mg/dL
IP [8]: 5.6 mg/dL
K [8]: 3.9 meq/L
Na [8]: 141.5 meq/L
PL [8]: 357.5 mg/dL
RALB [8]: 1.6 g/dL
TBIL [8]: 0 mg/dL
TC [8]: 233 mg/dL
TG [8]: 309 mg/dL
TP [8]: 4.5 g/dL
gamma-GTP [8]: 14.5 IU/L
